Reference: DBAASP
≈ marks a conversion by molar mass, not a printed value. Where “and” joins values, the source holds several entries; their conditions need not be identical. Equal values may be shown once. One block for each molecule: values may come before it.

How the values were obtained:
Test in all cases: ≥ marks a high value that may be exact or a test limit, other limits are often not marked, values filed in µg/mL are converted to µM
[1] = test system: Escherichia coli NBRC 14237
[2] = test system: Micrococcus luteus NBRC 12708
[3] = test system: Pseudomonas aeruginosa NBRC 12582
[4] = test system: Staphylococcus aureus NBRC 12732
[5] = test system: Aspergillus niger CECT 2694
[6] = test system: Fusarium oxysporum f. sp. lycopersici ATCC 201829
[7] = test system: Penicillium expansum EPS 26
[8] = test system: Rhizopus stolonifer CECT 2344
[9] = test system: Escherichia coli ATCC 25922
[10] = test system: Mycobacterium tuberculosis H37Rv
[11] = test system: Mycobacterium tuberculosis
[12] = test system: Staphylococcus aureus ATCC 25923
[13] = test system: Bacillus subtilis IFO 3134
[14] = test system: Escherichia coli IFO 12734
[15] = test system: Pseudomonas aeruginosa IFO 12582
[16] = test system: Staphylococcus aureus IFO 12732
[17] = test system: Acinetobacter calcoaceticus Ac11
Bacillus megaterium Bm11 = test system: Bacillus megaterium Bm11
[18] = test system: Bacillus subtilis ATCC 6051
Escherichia coli D21 = test system: Escherichia coli D21
[19] = test system: Micrococcus luteus ATCC 9341
[20] = test system: Pseudomonas aeruginosa ATCC 27853
[21] = test system: Salmonella enterica subsp. enterica serovar Typhimurium LT2
Micrococcus luteus = test system: Micrococcus luteus
[22] = test system: Pseudomonas aeruginosa ATCC 15692
Saccharomyces cerevisiae = test system: Saccharomyces cerevisiae
Escherichia coli HB101 = test system: Escherichia coli HB101
Escherichia coli ML-35 = test system: Escherichia coli ML-35
[23] = test system: Salmonella enterica subsp. enterica serovar Typhimurium ATCC 14028
[24] = test system: Serratia marcescens ATCC 8100
[25] = test system: Corynebacterium glutamicum ATCC 13032
[26] = test system: Staphylococcus aureus ATCC 9144

MIC [17]: ≥ 100 µM
MIC (Bacillus megaterium Bm11): ≥ 100 µM
MIC [18]: ≥ 100 µM
MIC (Escherichia coli D21): ≥ 100 µM
MIC [19]: ≥ 100 µM
MIC [20]: > 100 µM
MIC [21]: ≥ 100 µM
SMILES: CC[C@H](C)[C@H](N)C(=O)N[C@@H](CO)C(=O)N[C@@H](CO)C(=O)N1CCC[C@H]1C(=O)N[C@@H](CC(C)C)C(=O)N[C@@H](Cc1ccccc1)C(=O)N[C@@H](CCCCN)C(=O)N[C@H](C(=O)N[C@@H](CC(C)C)C(=O)N[C@@H](CC(C)C)C(=O)N[C@@H](CO)C(=O)N[C@@H](C)C(=O)N[C@H](C(=O)NCC(=O)N[C@@H](CO)C(=O)N[C@@H](C)C(=O)N[C@@H](CC(C)C)C(=O)N[C@@H](CO)C(=O)N[C@@H](CO)C(=O)N[C@@H](CO)C(=O)NCC(=O)NCC(=O)N[C@@H](CCC(N)=O)C(=O)N[C@@H](CCC(=O)O)C(=O)O)C(C)C)[C@@H](C)O [ISSPLFKTLLSAVGSALSSSGGQE]

MIC [9]: 128 µM (≈ 235 µg/mL)
MIC [1]: 12.5 µM (≈ 23 µg/mL)
MIC [2]: ≥ 50 µM
MIC (Micrococcus luteus): 2 µM (≈ 3.68 µg/mL)
MIC [22]: ≥ 256 µM
MIC [3]: ≥ 50 µM
MIC (Saccharomyces cerevisiae): ≥ 64 µM
MIC [12]: 32 µM (≈ 58.9 µg/mL)
MIC [4]: 12.5 µM (≈ 23 µg/mL)
SMILES: CC(C)C[C@H](NC(=O)[C@H](CC(C)C)NC(=O)[C@H](CC(N)=O)NC(=O)[C@H](CO)NC(=O)CNC(=O)[C@@H](NC(=O)[C@H](CCCCN)NC(=O)[C@H](CC(C)C)NC(=O)CNC(=O)[C@@H](NC(=O)[C@H](CCCCN)NC(=O)[C@H](CC(C)C)NC(=O)[C@H](CC(C)C)NC(=O)[C@H](CO)NC(=O)CNC(=O)[C@H](CC(C)C)NC(=O)[C@H](CC(C)C)NC(=O)[C@@H](N)CC(N)=O)[C@@H](C)O)C(C)C)C(N)=O [NLLGSLLKTGLKVGSNLL]

MIC [9]: > 128 µM
MIC (Escherichia coli HB101): ≥ 90.5 µM
MIC (Escherichia coli ML-35): ≥ 128 µM
MIC [23]: > 128 µM
MIC [24]: ≥ 128 µM
MIC [12]: > 128 µM
SMILES: CC[C@H](C)[C@H](NC(=O)[C@H](CCCN=C(N)N)NC(=O)[C@@H](N)CCCN=C(N)N)C(=O)N[C@@H](CCCN=C(N)N)C(=O)N1CCC[C@H]1C(=O)N[C@@H](CCCN=C(N)N)C(=O)N1CCC[C@H]1C(=O)N1CCC[C@H]1C(=O)N[C@@H](CCCN=C(N)N)C(=O)N[C@@H](CC(C)C)C(=O)N1CCC[C@H]1C(=O)N[C@@H](CCCN=C(N)N)C(=O)N1CCC[C@H]1C(=O)O [RRIRPRPPRLPRP]

MIC [25]: 0.4 µM (≈ 1.29 µg/mL)
MIC [9]: 1.13 µM (≈ 3.65 µg/mL)
MIC (Escherichia coli HB101): 1.13 µM (≈ 3.65 µg/mL)
MIC [20]: 4.42 µM (≈ 14.3 µg/mL)
MIC [26]: ≥ 50 µM
SMILES: CC[C@H](C)[C@H](NC(=O)[C@H](CCCN=C(N)N)NC(=O)[C@@H]1CCCN1C(=O)[C@@H]1CCCN1C(=O)[C@H](CC(C)C)NC(=O)[C@H](CCCN=C(N)N)NC(=O)[C@@H]1CCCN1C(=O)[C@@H]1CCCN1C(=O)[C@H](Cc1ccccc1)NC(=O)[C@H](Cc1ccccc1)NC(=O)[C@@H]1CCCN1C(=O)[C@@H]1CCCN1C(=O)[C@@H]1CCCN1C(=O)[C@H](CCCN=C(N)N)NC(=O)[C@@H]1CCCN1C(=O)[C@H](CCCN=C(N)N)NC(=O)[C@@H]1CCCN1C(=O)[C@H](CC(C)C)NC(=O)[C@H](Cc1ccc(O)cc1)NC(=O)[C@@H]1CCCN1C(=O)[C@@H]1CCCN1C(=O)[C@H](CCCN=C(N)N)NC(=O)[C@@H]1CCCN1C(=O)[C@H](CCCN=C(N)N)NC(=O)[C@H](CCCN=C(N)N)NC(=O)[C@@H](N)CCCN=C(N)N)C(=O)O [RRRPRPPYLPRPRPPPFFPPRLPPRI]

The next lines start with the molecule.

SMILES: CC[C@H](C)[C@H](NC(=O)CNC(=O)[C@H](C)NC(=O)[C@H](CC(C)C)NC(=O)[C@H](CC(C)C)NC(=O)[C@H](CCCN=C(N)N)NC(=O)[C@@H]1CCCN1C(=O)[C@H](C)NC(=O)[C@H](CC(C)C)NC(=O)[C@H](CCCCN)NC(=O)[C@H](CC(C)C)NC(=O)[C@H](CC(C)C)NC(=O)[C@H](C)N)C(=O)N[C@@H](Cc1ccccc1)C(N)=O [ALLKLAPRLLAGIF]
MIC [1]: 12.5 µM (≈ 18.7 µg/mL)
MIC [2]: ≥ 50 µM
MIC [3]: ≥ 50 µM
MIC [4]: 12.5 µM (≈ 18.7 µg/mL)

SMILES: CC[C@H](C)[C@H](NC(=O)[C@H](CCCCN)NC(=O)[C@H](CCCCN)NC(=O)[C@H](Cc1ccccc1)NC(=O)[C@H](CC(C)C)NC(=O)[C@H](CCCCN)NC(=O)[C@@H](N)Cc1ccccc1)C(=O)N[C@@H](CC(C)C)C(=O)N[C@@H](CCCCN)C(=O)N[C@H](C(=O)N[C@@H](CC(C)C)C(N)=O)C(C)C [FKLFKKILKVL]
MIC [5]: 22.4 µM (≈ 30.8 µg/mL)
MIC [6]: 1.73 µM (≈ 2.38 µg/mL)
MIC [7]: ≥ 35.4 µM
MIC [8]: ≥ 70.7 µM

SMILES: CC[C@H](C)[C@H](NC(=O)[C@H](CC(C)C)NC(=O)[C@H](CCCCN)NC(=O)[C@H](CC(C)C)NC(=O)[C@H](C)NC(=O)CNC(=O)[C@H](CCCCN)NC(=O)[C@H](C)NC(=O)[C@H](CC(C)C)NC(=O)[C@H](C)NC(=O)CNC(=O)[C@H](Cc1c[nH]c2ccccc12)NC(=O)[C@@H](N)Cc1ccccc1)C(=O)NCC(=O)N1CCC[C@H]1C(=O)NCC(=O)N[C@@H](CO)C(=O)N[C@@H](CC(C)C)C(=O)N[C@@H](Cc1ccccc1)C(=O)N[C@@H](CO)C(=O)N[C@@H](CO)C(=O)N[C@@H](Cc1ccccc1)C(=O)N[C@@H](CO)C(=O)N[C@@H](CCCCN)C(=O)N[C@@H](CCCCN)C(=O)N[C@@H](CC(=O)O)C(=O)O [FWGALAKGALKLIGPGSLFSSFSKKD]
MIC [9]: 12.5 µM and 25 µM
MIC [10]: 29.4 µM (≈ 80.1 µg/mL)
MIC [11]: 17.6 µM (≈ 48.1 µg/mL)
MIC [12]: 12.5 µM and 25 µM

SMILES: CC[C@H](C)[C@H](NC(=O)[C@H](C)NC(=O)[C@@H]1CCCN1C(=O)[C@@H](NC(=O)[C@@H](NC(=O)[C@H](Cc1cnc[nH]1)NC(=O)[C@H](C)NC(=O)[C@H](C)NC(=O)[C@@H](NC(=O)[C@H](CCCCN)NC(=O)[C@H](C)NC(=O)[C@H](CC(C)C)NC(=O)[C@@H](NC(=O)CNC(=O)[C@H](Cc1ccccc1)NC(=O)[C@H](CC(C)C)NC(=O)CN)C(C)C)C(C)C)C(C)C)C(C)C)C(=O)N[C@@H](C)C(=O)N[C@@H](CCC(=O)O)C(N)=O [GLFGVLAKVAAHVVPAIAE]
MIC [13]: ≥ 64 µM
MIC [14]: ≥ 64 µM
MIC [15]: ≥ 64 µM
MIC [16]: ≥ 64 µM

SMILES: CC[C@H](C)[C@H](NC(=O)[C@H](C)NC(=O)[C@@H]1CCCN1C(=O)[C@@H](NC(=O)[C@@H](NC(=O)[C@H](CCCCN)NC(=O)[C@H](C)NC(=O)[C@H](C)NC(=O)[C@@H](NC(=O)[C@H](CCCCN)NC(=O)[C@H](C)NC(=O)[C@H](CC(C)C)NC(=O)[C@@H](NC(=O)CNC(=O)[C@H](Cc1ccccc1)NC(=O)[C@H](CC(C)C)NC(=O)CN)C(C)C)C(C)C)C(C)C)C(C)C)C(=O)N[C@@H](C)C(=O)N[C@@H](CCCCN)C(=O)N[C@@H](Cc1cnc[nH]1)C(=O)N[C@@H](Cc1ccccc1)C(N)=O [GLFGVLAKVAAKVVPAIAKHF]
MIC [13]: 2 µM (≈ 4.27 µg/mL)
MIC [14]: 8 µM (≈ 17.1 µg/mL)
MIC [15]: 16 µM (≈ 34.2 µg/mL)
MIC [16]: 4 µM (≈ 8.54 µg/mL)
